Experimental data from patent publication US9517222B2, “Method for the treatment of senile dementia of the Alzheimer's type” (Phenomenome Discoveries Inc., priority 2007, dated 2016).

What was measured:
Assay type in all cases: cell-based
[1] = test system: plasmalogen-deficient NRel-4 cells; test: Restoration of PtdEt and EtnPl pools in vitro, plasmalogen-deficient NRel-4 cells; conditions: 20 μM, 72 hours
Description: (§1) FIGS. 25A-B show the relative change in the total EtnPls and PtdEt content. […] Values are normalized to untreated control CHO cells, and are an average of three independent experiments. Statistical significance was determined using a two-tailed t-test.
(§2) FIGS. 26A-B show the relative change in the DHA-EtnPls and DHA-PtdEt content. […] Values are normalized to untreated control CHO cells, and are an average of three independent experiments. Statistical significance was determined using a two-tailed t-test.
(§3) To investigate whether exogenous metabolic precursors can restore the ethanolamine phospholipids deficiency in vitro, a CHO cell line deficient in plasmalogen synthesis (NRel-4) was treated with the metabolic precursors 5a (sn-1-alkyl,sn-2-DHA glycerol) for 72 hours at a concentration of 20 μM, and its lipid profile was compared with the wild type cell line.

NRel-4 cell line = test: Total, free and esterified cholesterol in cultured cells (Cholesterol Quantification kit)
Description: Total cholesterol (solid bars), esterified cholesterol (hatched bars), and free cholesterol (dotted) content is represented as μg per million cells. C_V: control CHO cells treated with ethanol carrier; N_V: NRel4 cells treated with ethanol carrier; N_5a: Nrel-4 cells treated with metabolic precursor 5a (20 μM).
To test the effect of metabolite precursors on total and esterified cholesterol in vitro, the CHO/NRel-4 cell line model was used. […] CHO cell line cultured in the presence of the ethanol vehicle (C_V) has 6.66 μg total cholestero/million cells. This reflects the wild type phenotype, and was used for normalization. The NRel-4 cell line deficient in plasmalogen synthesis cultured in the presence of ethanol vehicle (N_V) had 10.75 μg total cholestero/million cells (61% higher than control). Culturing the deficient cells with the metabolic precursor 5a (sn-1-alkyl, sn-2-DHA glycerol) for 72 hours at a concentration of 20 µM (N_5a) reduced the total cholesterol content to […] (24% higher than control). […] Treatment with 5a reduced the free cholesterol content to 5.8 μg/million cells. A reciprocal trend was observed when assaying the fraction of cholesterol that was esterified in the cell lines.

wild type CHO cells = test: Restoration of PtdEt and EtnPl pools in vitro, wild type CHO cells; conditions: 20 μM, 72 hours
Description: as §1, §2, §3

Q: For CC/C=C\C/C=C\C/C=C\C/C=C\C/C=C\C/C=C\CCC(=O)OC(CO)COCCCCCCCCCCCCCCCC (racemic) [Metabolite 5a, (4Z,7Z,10Z,13Z,16Z,19Z)-1-(hexadecyloxy)-3-hydroxypropan-2-yl docosa-4,7,10,13,16,19-hexanenoate], which “Relative total EtnPls content” value ([1]; normalized to untreated control CHO cells, vehicle 10.8%) is on record?
A: The value was 44.2%.

Q: What about the “Total DHA-EtnPls pool” value ([1]; of CHO levels, vehicle 8.7%) of the same compound?
A: The value was 72.3%.

Q: And the “Total PtdEt content” value ([1]; of the control CHO)?
A: The value was 55.9%.

Q: What about the DHA-PtdEt pool ([1]; vs untreated control CHO) of the same compound?
A: Its DHA-PtdEt pool is 110.6%.

Q: What about the Esterified cholesterol (NRel-4 cell line; NRel-4 cells treated with 5a, vehicle NRel-4 1.84) of the same compound?
A: The Esterified cholesterol was 2.49 μg/million cells.

Q: And the Free cholesterol content (NRel-4 cell line; NRel-4 cells treated with 5a, vehicle NRel-4 8.9, CHO 4.5)?
A: The Free cholesterol content was 5.8 μg/million cells.

Q: What about the Total cholesterol content (NRel-4 cell line; NRel-4 cells, 72 hours, 20 μM (N_5a), vehicle NRel-4 10.75, CHO 6.66) of the same compound?
A: Its Total cholesterol content is 8.28 μg/million cells.

Q: And the “Total cholesterol content higher than control” value (NRel-4 cell line; NRel-4 cells, 72 hours, 20 μM, vs CHO vehicle control)?
A: The value was 24%.

Q: What about the “Increase in the esterified fraction of cholesterol” value (NRel-4 cell line; NRel-4 cells, vs vehicle-treated NRel-4) of the same compound?
A: The value was 34%.

Q: And the “Relative total EtnPls content” value (wild type CHO cells; normalized to untreated control CHO cells)?
A: Its value is 86.9%.

Q: And the “Total DHA-EtnPls pool” value (wild type CHO cells; of CHO levels)?
A: Its value is 136.8%.

Q: What about the “Total PtdEt content” value (wild type CHO cells; of untreated control) of the same compound?
A: The value was 54.9%.

Q: And the DHA-PtdEt pool (wild type CHO cells; vs untreated control CHO)?
A: The DHA-PtdEt pool was 93.5%.
